Measured values as given in patent US10913788B2, “Pharmaceutical composition for preventing or treating dry eyes” (EYEBIO KOREA, priority 2015, dated 2021).

Assays:
Format in all cases: in vivo
[1] = test system: TNF-α, ICAM-1, VCAM-1, MMP-2, and MMP-9; test: Immunohistochemical analysis of inflammatory markers in conjunctiva of dry eye mice; settings: instillation for 10 days after removal of desiccation stress
Description: (§1) NOD.B10.H2^b mice were purchased from Jackson Laboratory (Bar Harbor, Me., USA). Experiments on animals were performed according to the guidelines for animal experiments of Inje University College of Medicine (No.; 2014-029) and the ARVO statement for the use of animals in ophthalmic and vision research. 12-to-16-week-old NOD.B10.H2^b mice underwent desiccation stress as being exposed to an air draft from a fan at an ambient humidity of about 40% to 50% for 18 hours per day, and then, were subjected to subcutaneous injection of 0.5 mg/0.2 mL of muscarinic receptor blockers. Also, the mice were injected with scopolamine hydrobromide (Sigma-Aldrich, St. Louis, Mo.) alternatively on hindquarters 4 times per day (9 AM, 12 PM, 3 PM, and 6 PM) for 10 days. During these experiments, behaviors and food and water intakes of the mice were not restricted. 10 days later, the mice were euthanized.
(§2) 10 days after the mice underwent desiccation stress, the scopolamine injection was halted, and then, the mice newly had environments with normal humidity and temperature. After the desiccation stress was removed, the mice were divided into a peptide I group or a peptide II group, wherein 10 mg/ml of peptide I or 10 mg/ml of peptide II was dissolved in PBS and 5 μL of PBS was instilled into eyeballs of the mice 5 times per day for 10 days. […]

NOD.B10.H2^b mice = test: Tear production measured with phenol red-impregnated cotton threads in dry eye mice after removal of desiccation stress; settings: for increased tear production compared to the control group (PBS group): 10 mg/ml in PBS, 5 μL instilled into eyeballs 5 times per day, up to 10 days after removal of desiccation stress, p<0.05; for tear production / tear volume, result in words: eye instillation 5 times per day for 10 days after removal of desiccation stress, 0.1% HA
Description: as §1
(§3) 10 days after the mice underwent desiccation stress, the scopolamine injection was halted, and then, the mice newly had environments with normal humidity and temperature. After the desiccation stress was removed, the mice were divided into a peptide I group or a peptide II group, wherein 10 mg/ml of peptide I or 10 mg/ml of peptide II was dissolved in PBS and 5 μL of PBS was instilled into eyeballs of the mice 5 times per day for 10 days. In addition, 5 μL of PBS or 5 μL of 0.1% HA were instilled into eyeballs of the mice in a control group, i.e., a PBS group or a hyaluni (HA) group, 5 times a day for 10 days. In each group, both eyes of each of 5 mice were used to conduct the experiments in a repetitive manner.
Extents of tear production were measured with phenol red-impregnated cotton threads (Zone-Quick; Oasis, Glendora, Calif.), as previously described (Villareal A L, Farley W, Pflugfelder S C. Effect of topical ophthalmic epinastine and olopatadine on tear volume in mice. Eye Contact Lens. 2006; 32(6):272-276). The threads were held medical tweezers and placed in the lateral canthus for 20 seconds. The tear volumes were expressed as millimeter (mm) of wet thread that had been turned red by the tears, as measured under a microscope (SZX7; Olympus corp, Tokyo, Japan).
The tear fluid uptakes measured in millimeters were compared to a standard curve that was prepared from cotton threads with known uptake volumes of a stock basic solution ([…] of 0.9% saline and 5 mL of 5 N NaOH) over 20 seconds that were within the range that would be expected for mouse tears.

[2] = test system: conjunctival goblet cells; test: Distribution of conjunctival goblet cells (PAS stain) in dry eye mice; settings: instillation after removal of desiccation stress, p<0.05; for conjunctival goblet cells: desiccation stress 7.43±1.52
Description: as §1, §3
The eyes and adnexa of the mice in the control groups (i.e., the PBS group and the HA group) and the experimental groups (i.e., the peptide I group and the peptide II group) were surgically excised, fixed in 10% formalin, and embedded in paraffin and an OCT compound.
6 μm sections of the tissue samples were stained with haematoxylin and eosin (H&E) and periodic acid-Schiff (PAS) reagent.
5 animals in each group were subjected to the staining as described above, and then, were examined and photographed with a virtual microscope (NanoZoomer 2.0 RS, Hamamatsu, Japan).
The distribution of the conjunctival goblet cells in the dry eye mice were observed following peptide I, peptide II, and HA instillation.

corneal epithelial cells = test: Detachment of corneal epithelial cells (H&E stain) in dry eye mice; settings: instillation for 10 days after removal of desiccation stress
Description: as §1, §2

Row | Substance | expression of inflammatory markers (TNF-α, ICAM-1, VCAM-1, MMP-2, MMP-9) in the conjunctiva, result in words [1] | increased tear production compared to the control group (PBS group) (NOD.B10.H2^b mice) | tear production / tear volume, result in words (NOD.B10.H2^b mice) | conjunctival goblet cells [2] [cells/0.1 mm^2] | increase of conjunctival goblet cells that were decreased by desiccation stress [2] | number of detached corneal epithelial cells (corneal epithelial cells; DS 10D 2.29±0.61, PBS 1.43±0.34) | decrease of detachment of corneal epithelial cells compared to the control groups (corneal epithelial cells)
1 | GDRGD [peptide I, collagen type I α1 based peptide GDRGD] | significantly decreased | about 2.52 fold | recovering the tear volumes up to normal tear volumes | 13.3 ± 2.41 | about 1.8 fold | about 0.19±0.14 /0.1 mm^2 | –
2 | GQDGLAGPK [peptide II, collagen type II α1 based peptide …] | significantly decreased | about 2.52 fold | recovering the tear volumes up to normal tear volumes | 12.1 ± 1.11 | about 1.63 fold | – | about 4 fold
